According to ChEMBL document CHEMBL3124856, “Design, synthesis, and pharmacological evaluation of a novel series of pyridopyrazine-1,6-dione γ-secretase modulators” (J Med Chem, 2014):

Legend:
MDR1 (human) = assay: Efflux ratio of permeability in MDCK cells expressing human MDR1; type: ADME, cell-based, Canis lupus familiaris; details: dog
[1] = Apparent intrinsic clearance in human liver microsomes; type: ADME; details: read-out: CLH(app)
Gamma-secretase = assay: Modulation of gamma-secretase (unknown origin) expressed in CHO cells overexpressing human wild type APP assessed as reduction of amyloid beta 42 level after 24 hrs by ELISA; type: cell-based
[2] = Apparent intrinsic clearance in human hepatocytes; type: ADME, cell-based, Hepatocyte; details: read-out: CLH(app)
[3] = Passive apparent permeability from apical to basolateral side in RRCK cells; type: ADME, cell-based, Canis lupus familiaris, MDCKII-LE; details: dog, MDCK
[4] = Half life in human hepatocytes; type: ADME, cell-based, Hepatocyte

Row | SMILES | efflux ratio (MDR1 (human)) | CLint scaled [1] | IC50 (Gamma-secretase) | CLint scaled [2] | Papp A→B [3] | half-life [4]
1 | COc1c(-n2cnc(C)c2)ccc2c(=O)n(CCc3cccc(Cl)c3)ccc12 | 1.2 | 36.1 mL/min/kg | 3400 nM | – | – | –
2 | Cc1cn(-c2ccc3c(c2O)CCN(Cc2cccc(C(F)(F)F)c2)C3=O)cn1 | 1.9 | < 8 mL/min/kg | 400 nM | 90.5 mL/min/kg | 10.4 ×10⁻⁶ cm/s | 19.3 min
